Values quoted from earlier work as cited in patent US20030099724A1, “Compounds for prevention of diabetic retinopathy” (priority 2001, published 2003).

Legend:
diabetic retinopathy = settings: rat models

SMILES | solubility in alcohol (alcohol) | solubility in water (water) | progression of diabetic retinopathy (diabetic retinopathy)
CCOC(=O)C1=C(COCCN)NC(C)=C(C(=O)OC)C1c1ccccc1Cl (stereo not drawn) [Amlodipine besylate, amlodipine besylate] | sparingly soluble | slightly soluble | 
N=C(N)NN [amino guanidine] |  |  | retards the progression of diabetic retinopathy
